Results from PubChem BioAssay (NCI).
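96-well plates; 48 h exposure; 5 concentrations. Endpoints by linear interpolation between flanking doses. Not reached: highest tested concentration assigned. At the TGI there is no net growth.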

Assays:
Assay in all cases: DTP human tumour cell line panel, 48 h
COLO 205 colon = system: COLO 205 colon
NCI-H226 lung = system: NCI-H226 lung
SNB-75 CNS = system: SNB-75 CNS
TK-10 renal = system: TK-10 renal
OVCAR-3 ovarian = system: OVCAR-3 ovarian
CAKI-1 renal = system: CAKI-1 renal
LOX IMVI melanoma = system: LOX IMVI melanoma
A549 NSCLC = system: A549 NSCLC
SN12C renal = system: SN12C renal
MALME-3M melanoma = system: MALME-3M melanoma
K-562 leukemia = system: K-562 leukemia
786-0 renal = system: 786-0 renal
SF-539 CNS = system: SF-539 CNS
NCI/ADR-RES ovarian = system: NCI/ADR-RES ovarian
ACHN renal = system: ACHN renal
NCI-H460 lung = system: NCI-H460 lung
OVCAR-5 ovarian = system: OVCAR-5 ovarian
HOP-92 NSCLC = system: HOP-92 NSCLC
UACC-62 melanoma = system: UACC-62 melanoma
HCT-116 colon = system: HCT-116 colon
SW-620 colon = system: SW-620 colon
HT29 colon = system: HT29 colon
MDA-N = system: MDA-N
SK-MEL-28 melanoma = system: SK-MEL-28 melanoma
KM12 colon = system: KM12 colon
RXF 393 renal = system: RXF 393 renal
HOP-62 NSCLC = system: HOP-62 NSCLC
SF-268 CNS = system: SF-268 CNS
HS 578T breast = system: HS 578T breast
M14 melanoma = system: M14 melanoma
UO-31 renal = system: UO-31 renal
SK-OV-3 ovarian = system: SK-OV-3 ovarian
SF-295 CNS = system: SF-295 CNS
BT-549 breast = system: BT-549 breast
MCF7 breast = system: MCF7 breast
OVCAR-4 ovarian = system: OVCAR-4 ovarian
MOLT-4 leukemia = system: MOLT-4 leukemia
HCC-2998 colon = system: HCC-2998 colon
SR leukemia = system: SR leukemia
SNB-19 CNS = system: SNB-19 CNS
IGROV1 ovarian = system: IGROV1 ovarian
SK-MEL-5 melanoma = system: SK-MEL-5 melanoma
PC-3 prostate = system: PC-3 prostate
SK-MEL-2 melanoma = system: SK-MEL-2 melanoma
CCRF-CEM leukemia = system: CCRF-CEM leukemia
U251 CNS = system: U251 CNS
OVCAR-8 ovarian = system: OVCAR-8 ovarian
A498 renal = system: A498 renal
MDA-MB-231 breast = system: MDA-MB-231 breast
HCT-15 colon = system: HCT-15 colon
NCI-H522 lung = system: NCI-H522 lung
RPMI-8226 leukemia = system: RPMI-8226 leukemia
EKVX NSCLC = system: EKVX NSCLC
DU-145 prostate = system: DU-145 prostate
MDA-MB-435 = system: MDA-MB-435
T-47D breast = system: T-47D breast
UACC-257 melanoma = system: UACC-257 melanoma
NCI-H23 lung = system: NCI-H23 lung
HL-60(TB) leukemia = system: HL-60(TB) leukemia
M19-MEL melanoma = system: M19-MEL melanoma
KM20L2 colon = system: KM20L2 colon
DMS 273 small cell lung = system: DMS 273 small cell lung
DMS 114 small cell lung = system: DMS 114 small cell lung
LXFL 529 NSCLC = system: LXFL 529 NSCLC
DLD-1 colon = system: DLD-1 colon

SMILES: CCCCCCCC(=O)OC[n+]1ccc(-c2c(COC(=O)NC(C)C)c(COC(=O)NC(C)C)c3n2CCC3)cc1
- TGI (COLO 205 colon): > 100 µM
- TGI (NCI-H226 lung): > 100 µM
- TGI (SNB-75 CNS): > 100 µM
- TGI (TK-10 renal): > 100 µM
- TGI (OVCAR-3 ovarian): > 100 µM
- TGI (CAKI-1 renal): 62.7 µM
- TGI (LOX IMVI melanoma): 54 µM
- TGI (A549 NSCLC): > 100 µM
- TGI (SN12C renal): > 100 µM
- TGI (MALME-3M melanoma): > 90.6 µM
- TGI (K-562 leukemia): > 100 µM
- TGI (786-0 renal): > 79.8 µM
- TGI (SF-539 CNS): > 66.3 µM
- TGI (NCI/ADR-RES ovarian): > 100 µM
- TGI (ACHN renal): 68.9 µM
- TGI (NCI-H460 lung): > 100 µM
- TGI (OVCAR-5 ovarian): > 100 µM
- TGI (HOP-92 NSCLC): 83.8 µM
- TGI (UACC-62 melanoma): 33.5 µM
- TGI (HCT-116 colon): > 71.4 µM
- TGI (SW-620 colon): 60.8 µM
- TGI (HT29 colon): > 100 µM
- TGI (MDA-N): > 100 µM
- TGI (SK-MEL-28 melanoma): > 100 µM
- TGI (KM12 colon): > 100 µM
- TGI (RXF 393 renal): 49.9 µM
- TGI (HOP-62 NSCLC): > 100 µM
- TGI (SF-268 CNS): > 73.8 µM
- TGI (HS 578T breast): > 100 µM
- TGI (M14 melanoma): > 100 µM
- TGI (UO-31 renal): > 100 µM
- TGI (SK-OV-3 ovarian): > 100 µM
- TGI (SF-295 CNS): > 100 µM
- TGI (BT-549 breast): > 94.1 µM
- TGI (MCF7 breast): > 100 µM
- TGI (OVCAR-4 ovarian): > 100 µM
- TGI (MOLT-4 leukemia): > 59 µM
- TGI (HCC-2998 colon): > 100 µM
- TGI (SR leukemia): > 56 µM
- TGI (SNB-19 CNS): > 100 µM
- TGI (IGROV1 ovarian): > 68.3 µM
- TGI (SK-MEL-5 melanoma): > 100 µM
- TGI (PC-3 prostate): > 100 µM
- TGI (SK-MEL-2 melanoma): 47.1 µM
- TGI (CCRF-CEM leukemia): > 60.3 µM
- TGI (U251 CNS): > 100 µM
- TGI (OVCAR-8 ovarian): > 100 µM
- TGI (A498 renal): 85.1 µM
- TGI (MDA-MB-231 breast): > 100 µM
- TGI (HCT-15 colon): > 100 µM
- TGI (NCI-H522 lung): > 59.6 µM
- TGI (RPMI-8226 leukemia): 66.2 µM
- TGI (EKVX NSCLC): > 100 µM
- TGI (DU-145 prostate): > 59.8 µM
- TGI (MDA-MB-435): > 100 µM
- TGI (T-47D breast): > 100 µM
- TGI (UACC-257 melanoma): > 100 µM
- TGI (NCI-H23 lung): > 100 µM
- TGI (HL-60(TB) leukemia): 52.4 µM

SMILES: COC(=O)[C@H]1[C@H]2C[C@@H]3c4[nH]c5cc(OC)ccc5c4CCN3C[C@H]2C[C@@H](OC(=O)c2cc(OC)c(OC)c(OC)c2)[C@@H]1OC
- TGI (COLO 205 colon): 33.6 µM
- TGI (NCI-H226 lung): 66.7 µM
- TGI (SNB-75 CNS): 10.2 µM
- TGI (TK-10 renal): 38 µM
- TGI (OVCAR-3 ovarian): 32.9 µM
- TGI (CAKI-1 renal): 36 µM
- TGI (M19-MEL melanoma): 50 µM
- TGI (A549 NSCLC): 55.5 µM
- TGI (MALME-3M melanoma): 34.2 µM
- TGI (K-562 leukemia): 29.3 µM
- TGI (786-0 renal): 27.7 µM
- TGI (SF-539 CNS): 23.8 µM
- TGI (ACHN renal): > 100 µM
- TGI (NCI-H460 lung): 59.9 µM
- TGI (OVCAR-5 ovarian): > 100 µM
- TGI (HOP-92 NSCLC): 39.9 µM
- TGI (UACC-62 melanoma): 36.9 µM
- TGI (HCT-116 colon): 31.5 µM
- TGI (SW-620 colon): > 100 µM
- TGI (KM20L2 colon): 35.3 µM
- TGI (HT29 colon): 29.8 µM
- TGI (DMS 273 small cell lung): 51.8 µM
- TGI (KM12 colon): 41.7 µM
- TGI (HOP-62 NSCLC): 28.1 µM
- TGI (DMS 114 small cell lung): 40.4 µM
- TGI (SF-268 CNS): > 100 µM
- TGI (M14 melanoma): 30.3 µM
- TGI (UO-31 renal): 43.5 µM
- TGI (SF-295 CNS): 37.7 µM
- TGI (OVCAR-4 ovarian): 27.8 µM
- TGI (MOLT-4 leukemia): 50.6 µM
- TGI (HCC-2998 colon): 47.1 µM
- TGI (SR leukemia): 34 µM
- TGI (SNB-19 CNS): 41 µM
- TGI (LXFL 529 NSCLC): 35.7 µM
- TGI (IGROV1 ovarian): 47.1 µM
- TGI (SK-MEL-5 melanoma): 54.3 µM
- TGI (SK-MEL-2 melanoma): 38.1 µM
- TGI (CCRF-CEM leukemia): 44.1 µM
- TGI (DLD-1 colon): > 100 µM
- TGI (U251 CNS): 28.2 µM
- TGI (OVCAR-8 ovarian): 49.6 µM
- TGI (HCT-15 colon): 87.8 µM
- TGI (NCI-H522 lung): 34 µM
- TGI (RPMI-8226 leukemia): 39.5 µM
- TGI (UACC-257 melanoma): 42.1 µM
- TGI (NCI-H23 lung): 41.7 µM
- TGI (HL-60(TB) leukemia): 30.5 µM
